Data: ChEMBL document CHEMBL1156842, “Discovery of 5-aryloxy-2,4-thiazolidinediones as potent GPR40 agonists” (Bioorg Med Chem Lett, 2010)
Activity calls are given as the source filed them. The calls are words filed in the database; no cut-off is given here.

Test system: not listed separately
Test: Half life in mouse at 2 mg/kg
Format: ADME, organism-based
Parameters: dose 2 mg/kg
Conditions: in vivo

| half-life | SMILES |
| --- | --- |
| 5.1 h | Cc1cc(Oc2ncc(C(F)(F)F)cc2Cl)ccc1CC1SC(=O)NC1=O (stereo not drawn) |

Test system: not listed separately
Test: Clearance in mouse at 2 mg/kg
Format: ADME, organism-based
Parameters: dose 2 mg/kg
Conditions: in vivo

| clearance | SMILES |
| --- | --- |
| 1.9 mL/min/kg | Cc1cc(Oc2ncc(C(F)(F)F)cc2Cl)ccc1CC1SC(=O)NC1=O (stereo not drawn) |

Test system: Mus musculus
Test: Reduction in glucose excursion in lean mouse at 3 to 100 mg/kg, po pretreated 1 hr before dextrose challenge by intraperitoneal glucose tolerance test
Conditions: not given

| SMILES | Activity |
| --- | --- |
| Cc1cc(Oc2ncc(C(F)(F)F)cc2Cl)ccc1CC1SC(=O)NC1=O (stereo not drawn) | Active |

Test system: Mus musculus
Test: Reduction in glucose excursion in lean mouse assessed as inhibition of glucose AUC at 30 mg/kg, po pretreated 1 hr before dextrose challenge by intraperitoneal glucose tolerance test
Format: functional
Parameters: scale not given: the % may be the effect or the level left
Conditions: not given

| SMILES | Activity |
| --- | --- |
| Cc1cc(Oc2ncc(C(F)(F)F)cc2Cl)ccc1CC1SC(=O)NC1=O (stereo not drawn) | 73% |

Test system: Mus musculus
Test: Reduction in glucose excursion in GPR40-/- lean mouse assessed as inhibition of glucose AUC at 30 mg/kg, po pretreated 1 hr before dextrose challenge by intraperitoneal glucose tolerance test
Format: functional, organism-based
Parameters: dose 30 mg/kg
Conditions: not given

| SMILES | Activity |
| --- | --- |
| Cc1cc(Oc2ncc(C(F)(F)F)cc2Cl)ccc1CC1SC(=O)NC1=O (stereo not drawn) | inactive |

Test system: not listed separately
Test: Tmax in mouse at 2 mg/kg
Format: ADME, organism-based
Parameters: dose 2 mg/kg
Conditions: in vivo

| Tmax | SMILES |
| --- | --- |
| 3 h | Cc1cc(Oc2ncc(C(F)(F)F)cc2Cl)ccc1CC1SC(=O)NC1=O (stereo not drawn) |

Test system: not listed separately
Test: Cmax in mouse at 2 mg/kg
Format: ADME, organism-based
Parameters: dose 2 mg/kg
Conditions: in vivo

| Cmax | SMILES |
| --- | --- |
| 1.4 µM | Cc1cc(Oc2ncc(C(F)(F)F)cc2Cl)ccc1CC1SC(=O)NC1=O (stereo not drawn) |

Test system: not listed separately
Test: Plasma concentration in lean mouse at 30 mg/kg, po pretreated 1 hr before dextrose challenge measured after 2 hrs
Format: ADME, organism-based
Parameters: dose 30 mg/kg, route oral
Conditions: not given

| concentration at 2 h | SMILES |
| --- | --- |
| 37 µM | Cc1cc(Oc2ncc(C(F)(F)F)cc2Cl)ccc1CC1SC(=O)NC1=O (stereo not drawn) |

Target: T1, Free fatty acid receptor 1 (Homo sapiens, UniProt O14842)
T1 sequence (O14842 whole entry): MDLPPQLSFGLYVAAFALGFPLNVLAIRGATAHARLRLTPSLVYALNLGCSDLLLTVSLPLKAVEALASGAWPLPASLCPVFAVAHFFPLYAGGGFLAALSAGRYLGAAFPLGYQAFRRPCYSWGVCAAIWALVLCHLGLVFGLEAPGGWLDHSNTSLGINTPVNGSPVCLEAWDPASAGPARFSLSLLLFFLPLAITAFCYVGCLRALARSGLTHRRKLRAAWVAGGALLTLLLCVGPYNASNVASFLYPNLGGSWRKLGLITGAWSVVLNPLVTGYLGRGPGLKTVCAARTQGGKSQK
Test: Agonist activity at human GPR40 by FLIPR assay in presence of 1% BSA
Format: functional
Conditions: read-out: EC50

| EC50 | SMILES |
| --- | --- |
| 2220 nM | O=C1NC(=O)C(Cc2ccc(-c3ccccc3)cc2)S1 (stereo not drawn) |
| 9280 nM | O=C1NC(=O)C(Cc2ccc(Cc3ccccc3)cc2)S1 (stereo not drawn) |
| 318 nM | O=C1NC(=O)C(Cc2ccc(Oc3cccc(Cl)c3)cc2)S1 (stereo not drawn) |
| 2290 nM | O=C1NC(=O)C(Cc2ccc(Oc3ncccc3C(F)(F)F)cc2)S1 (stereo not drawn) |
| 96 nM | Cc1cc(C)cc(Oc2ccc(CC3SC(=O)NC3=O)cc2)c1 (stereo not drawn) |
| 11300 nM | O=C1NC(=O)C(Cc2ccccc2Oc2ccccc2)S1 (stereo not drawn) |
| 120 nM | Cc1cc(Oc2ccc(CC3SC(=O)NC3=O)cc2)cc(C)c1C#N (stereo not drawn) |
| 144 nM | O=C1NC(=O)C(Cc2ccc(Oc3cc4ccccc4cn3)cc2)S1 (stereo not drawn) |
| 4700 nM | O=C1NC(=O)C(Cc2cccc(Oc3ccccc3)c2)S1 (stereo not drawn) |
| 203 nM | Cc1cccc(Oc2ccc(CC3SC(=O)NC3=O)cc2)c1 (stereo not drawn) |
| 5060 nM | O=C1NC(=O)C(Cc2ccc(Sc3ccccc3)cc2)S1 (stereo not drawn) |
| 727 nM | Cc1ccc(Oc2ccc(CC3SC(=O)NC3=O)cc2)cc1C (stereo not drawn) |
| 558 nM | O=C1NC(=O)C(Cc2ccc(Oc3ccc(C(F)(F)F)cn3)cc2)S1 (stereo not drawn) |
| 238 nM | Cc1ccc(C)c(Oc2ccc(CC3SC(=O)NC3=O)cc2)c1 (stereo not drawn) |
| 334 nM | Cc1cccc(Oc2ccc(CC3SC(=O)NC3=O)cc2)c1C (stereo not drawn) |
| 1630 nM | O=C1NC(=O)C(Cc2ccc(Oc3cccc(C(F)(F)F)n3)cc2)S1 (stereo not drawn) |
| 5300 nM | O=C1NC(=O)C(Cc2ccc(C(=O)c3ccccc3)cc2)S1 (stereo not drawn) |
| 2620 nM | Cc1cccc(Oc2ccc(CC3SC(=O)NC3=O)cc2)n1 (stereo not drawn) |
| 26 nM | O=C1NC(=O)C(Cc2ccc(Oc3ncc(C(F)(F)F)cc3Cl)cc2Cl)S1 (stereo not drawn) |
| 2090 nM | O=C1NC(=O)C(Cc2ccc(/C=C/c3ccccc3)cc2)S1 (stereo not drawn) |
| 1090 nM | Cc1cccnc1Oc1ccc(CC2SC(=O)NC2=O)cc1 (stereo not drawn) |
| 207 nM | O=C1NC(=O)C(Cc2ccc(Oc3cc(Cl)cc(Cl)c3)cc2)S1 (stereo not drawn) |
| 1410 nM | COc1cc(Oc2ccc(Cl)cc2Cl)ccc1CC1SC(=O)NC1=O (stereo not drawn) |
| 6180 nM | O=C1NC(=O)C(Cc2ccc(OCc3ccccc3)cc2)S1 (stereo not drawn) |
| 480 nM | O=C1NC(=O)C(Cc2ccc(Oc3ccc(F)cc3)cc2)S1 (stereo not drawn) |
| 1080 nM | O=C1NC(=O)C(Cc2ccc(CCc3ccccc3)cc2)S1 (stereo not drawn) |

| EC50 | SMILES |
| --- | --- |
| 5450 nM | Cc1cc(Oc2ncc(C(F)(F)F)cc2Cl)cc(C)c1CC1SC(=O)NC1=O (stereo not drawn) |
| 1190 nM | O=C1NC(=O)C(Cc2ccc(Oc3ccccc3Cl)cc2)S1 (stereo not drawn) |
| 688 nM | Cc1cc(Oc2ccc(CC3SC(=O)NC3=O)cc2)nc(C(F)(F)F)c1 (stereo not drawn) |
| 4280 nM | Cc1ccnc(Oc2ccc(CC3SC(=O)NC3=O)cc2)c1 (stereo not drawn) |
| 90 nM | O=C1NC(=O)C(Cc2ccc(Oc3ncc(Cl)cc3Cl)cc2)S1 (stereo not drawn) |
| 124 nM | Cc1ccccc1Oc1ccc(CC2SC(=O)NC2=O)cc1 (stereo not drawn) |
| 18 nM | Cc1cc(Oc2ccc(C(F)(F)F)cc2Cl)ccc1CC1SC(=O)NC1=O (stereo not drawn) |
| 23600 nM | O=C1NC(=O)C(Cc2ccc(Oc3ncc(C(F)(F)F)cc3Cl)c3ccccc23)S1 (stereo not drawn) |
| 218 nM | Cc1cc(C(F)(F)F)cc(Oc2ccc(CC3SC(=O)NC3=O)cc2)n1 (stereo not drawn) |
| 88 nM | O=C1NC(=O)C(Cc2ccc(Oc3ccc(Cl)cc3Cl)cc2C(F)(F)F)S1 (stereo not drawn) |
| 1870 nM | O=C1NC(=O)C(Cc2ccc(Oc3ccc(Cl)cn3)cc2)S1 (stereo not drawn) |
| 6450 nM | O=C1CC(Cc2ccc(Oc3ccc(Cl)cc3Cl)cc2)C(=O)N1 (stereo not drawn) |
| 101 nM | O=C1NC(=O)C(Cc2ccc(Oc3ccc(Cl)cc3Cl)cc2)S1 (stereo not drawn) |
| 237 nM | O=C1NC(=O)C(Cc2ccc(Oc3cc(C(F)(F)F)ccn3)cc2)S1 (stereo not drawn) |
| 78 nM | O=C1NC(=O)C(Cc2ccc(Oc3ccc(C(F)(F)F)cc3Cl)cc2)S1 (stereo not drawn) |
| 240 nM | O=C1NC(=O)C(Cc2ccc(Oc3ccc(Cl)cc3)cc2)S1 (stereo not drawn) |
| 13800 nM | COc1cc(Oc2ncc(C(F)(F)F)cc2Cl)ccc1CC1SC(=O)NC1=O (stereo not drawn) |
| 547 nM | Cc1ccc(Oc2ccc(CC3SC(=O)NC3=O)cc2)cc1 (stereo not drawn) |
| 4470 nM | Cc1ccc(Oc2ccc(CC3SC(=O)NC3=O)cc2)nc1 (stereo not drawn) |
| 121 nM | Cc1ccc(Oc2ccc(CC3SC(=O)NC3=O)cc2)c(C)c1 (stereo not drawn) |
| 4020 nM | O=C1NC(=O)C(Cc2ccc(Oc3ccc(Cl)cc3Cl)cc2)O1 (stereo not drawn) |
| 10 nM | Cc1cc(Oc2ncc(C(F)(F)F)cc2Cl)ccc1CC1SC(=O)NC1=O (stereo not drawn) |
| 135 nM | O=C1NC(=O)C(Cc2ccc(Oc3cccc4ccccc34)cc2)S1 (stereo not drawn) |
| 63 nM | O=C1NC(=O)C(Cc2ccc(Oc3ncc(Cl)cc3Cl)cc2Cl)S1 (stereo not drawn) |
| 307 nM | O=C1NC(=O)C(Cc2ccc(Oc3ccccc3)cc2)S1 (stereo not drawn) |
| 69 nM | O=C1NC(=O)C(Cc2ccc(Oc3ncc(C(F)(F)F)cc3Cl)cc2)S1 (stereo not drawn) |

Same assay, conditions: read-out: pEC50 (converted)

| EC50 | SMILES |
| --- | --- |
| 10 nM | Cc1nc(-c2ccc(C(F)(F)F)cc2)sc1CNc1ccc(C2CC2C(=O)O)cc1 (stereo not drawn) |
| 100 nM | O=C(O)CCc1ccc(NCc2cccc(Oc3ccccc3)c2)cc1 [GW9508] |

Target: T1, Free fatty acid receptor 1
Test: Agonist activity at human GPR40 at 40 uM by FLIPR assay in presence of 1% BSA
Format: functional
Conditions: not given

| Activity | SMILES |
| --- | --- |
| 6% | O=C1CCC(Cc2ccc(Oc3ccc(Cl)cc3Cl)cc2)C(=O)N1 (stereo not drawn) |
| 46% | O=C1NC(=O)C(Cc2ccc(Oc3ccc(C(F)(F)F)cc3Cl)c3ccccc23)S1 (stereo not drawn) |
| 2% | CN1C(=O)NC(=O)C1Cc1ccc(Oc2ccc(Cl)cc2Cl)cc1 (stereo not drawn) |
| 23% | O=C1COC(Cc2ccc(Oc3ccc(Cl)cc3Cl)cc2)C(=O)N1 (stereo not drawn) |

Test system: Mus musculus
Test: Reduction in glucose excursion in po dosed lean mouse pretreated 1 hr before dextrose challenge by intraperitoneal glucose tolerance test
Format: functional, organism-based
Conditions: not given

| SMILES | Activity |
| --- | --- |
| Cc1cc(Oc2ncc(C(F)(F)F)cc2Cl)ccc1CC1SC(=O)NC1=O (stereo not drawn) | Dose-dependent effect |

Test system: not listed separately
Test: Oral bioavailability in mouse at 2 mg/kg
Format: ADME, organism-based
Conditions: in vivo

| bioavailability | SMILES |
| --- | --- |
| 100% | Cc1cc(Oc2ncc(C(F)(F)F)cc2Cl)ccc1CC1SC(=O)NC1=O (stereo not drawn) |
